Source: patent EP4603105A1, “PHARMACEUTICAL COMPOSITION CONTAINING CYCLIC COMPOUND HAVING SELECTIVE KRAS INHIBITORY EFFECT AGAINST HRAS AND NRAS” (CHUGAI SEIYAKU KABUSHIKI KAISHA, priority 2022, dated 2024)
Like-named read-outs stand apart in the source and are kept apart here.

Key:
[1] = test system: human lung cancer strain NCI-H441; test: NCI-H441 cell proliferation inhibitory activity (CellTiter-Glo, 4 days); format: cell-based; details: read-out: NCl-H441 IC50
Summary of the method: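 Step one: dispense the test compound in serial DMSO dilutions. Step three: add the reagent and measure […].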

[2] = target: GDP-bound KRAS wild-type protein (Homo sapiens, UniProt P01116); test: Binding to KRAS by surface plasmon resonance (SPR), dissociation constant KD
Summary of the method: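 Affinity is measured by surface plasmon resonance at 30°C against captured, GDP-loaded RAS carrying a biotinylated Avi tag. Compounds are titrated by single-cycle kinetics, and KD comes from a 1:1 fit.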

[3] = target: GDP-bound NRAS wild-type protein (Homo sapiens, UniProt P01111); test: Binding to NRAS by surface plasmon resonance (SPR), KD and KD ratio to KRAS
Summary of the method: (§1)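 Captured GDP-RAS (~100–300 RU) was exposed to increasing compound concentrations, 75 s per step, in running buffer with 10 µM GDP, 10 mM MgCl2 and 4% DMSO at pH 7.4.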

HRAS wild-type protein = HRAS wild-type protein (Homo sapiens, UniProt P01112); test: Binding to HRAS by surface plasmon resonance (SPR), KD and KD ratio to KRAS
Summary of the method: as §1

[4] = ratio of KD for GDP-bound NRAS wild-type protein to KD for KRAS
[5] = ratio of KD for HRAS wild-type protein to KD for KRAS
[6] = 50% proliferation inhibitory concentration, four days
[7] = Single Cycle Kinetics, 1:1 binding model
[8] = ratio of KD with respect to GDP-bound NRAS wild-type protein to KD with respect to KRAS
[9] = ratio of KD with respect to HRAS wild-type protein to KD with respect to KRAS

HRAS wild-type protein, sequence (P01112 whole entry): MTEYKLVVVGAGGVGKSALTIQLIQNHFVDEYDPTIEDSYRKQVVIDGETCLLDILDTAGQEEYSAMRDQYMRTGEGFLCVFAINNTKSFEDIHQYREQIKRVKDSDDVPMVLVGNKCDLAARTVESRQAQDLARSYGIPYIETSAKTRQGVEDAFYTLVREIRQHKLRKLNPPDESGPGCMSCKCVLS
GDP-bound KRAS wild-type protein, sequence (P01116 1-188 isoform P01116-2): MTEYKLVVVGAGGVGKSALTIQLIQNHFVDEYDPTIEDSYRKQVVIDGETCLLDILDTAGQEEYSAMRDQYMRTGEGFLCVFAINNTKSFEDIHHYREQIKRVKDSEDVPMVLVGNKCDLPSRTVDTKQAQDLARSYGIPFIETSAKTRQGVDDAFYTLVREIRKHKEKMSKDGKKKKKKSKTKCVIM
GDP-bound NRAS wild-type protein, sequence (P01111 whole entry): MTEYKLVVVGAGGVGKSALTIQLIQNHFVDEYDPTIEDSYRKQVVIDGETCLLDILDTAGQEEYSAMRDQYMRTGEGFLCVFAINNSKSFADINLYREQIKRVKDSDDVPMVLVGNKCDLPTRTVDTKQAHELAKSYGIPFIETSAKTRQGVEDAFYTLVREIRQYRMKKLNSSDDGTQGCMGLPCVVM

| SMILES | IC50 ([1]; NCI-H441 cells, 4 days) [nM] | Kd ([2]; 1:1 binding model) [nM] | NRAS /KRAS [3, 4] | HRAS /KRAS (HRAS wild-type protein; [5]) | Kd ([2]; Single Cycle Kinetics) [nM] | IC50 [1, 6] [nM] | Kd [2, 7] [nM] | NRAS /KRAS [3, 8] | HRAS /KRAS (HRAS wild-type protein; [9]) |
| --- | --- | --- | --- | --- | --- | --- | --- | --- | --- |
| CCCO[C@H](C)[C@@H]1NC(=O)[C@H](COCC)N(C)C(=O)C[C@@H](C(=O)N(C)CC)N(C)C(=O)[C@H](C2CCCC2)N(C)C(=O)C2(CC(C)(C)C2)NC(=O)[C@@H]2C[C@H](C)CN2C(=O)[C@H](CCc2ccc(C(F)(F)F)c(OC)c2)NC(=O)CN(C)C(=O)[C@H](Cc2ccc(C)cc2)N2CC/C=C\C[C@@H](C2=O)N(C)C(=O)CN(C)C1=O [PP2425] | 51.7 | 0.23 | AA (a compound having 20 or more is denoted as AA) | A (a compound having 10 or more and less than 20 is denoted as A) |  |  |  |  |  |
| CCO[C@@H]1C[C@H]2C(=O)NC3(CCCC3)C(=O)N(C)[C@@H](C3CCCC3)C(=O)N(C)[C@H](C(=O)N(C)C)CC(=O)N(C)[C@@H](CC(C)C)C(=O)N[C@@H]([C@@H](C)CC)C(=O)N(C)CC(=O)N(C)[C@H]3C/C(F)=C\CCN(C3=O)[C@@H](Cc3ccc(C)cc3)C(=O)N(C)CC(=O)N[C@@H](CCc3cc(F)c(C(F)(F)F)c(F)c3)C(=O)N2C1 [PP3511] | 12.3 |  | B (a compound having 3 or more and less than 10 is denoted as B) | B (a compound having 3 or more and less than 10 is denoted as B) | 0.27 |  |  |  |  |
| CCO[C@@H]1C[C@H]2C(=O)NC3(CC(C)(C)C3)C(=O)N(C)[C@@H](C3CCCC3)C(=O)N(C)[C@H](C(=O)N(C)CC)CC(=O)N(C)[C@@H](COC)C(=O)N[C@@H]([C@@H](C)CC)C(=O)N(C)CC(=O)N(C)[C@H]3C/C=C\CCN(C3=O)[C@@H](Cc3ccc(C)cc3)C(=O)N(C)CC(=O)N[C@@H](CCc3cc(F)c(C(F)(F)F)c(F)c3)C(=O)N2C1 [PP2396] | 4.1 | 0.069 | A (a compound having 10 or more and less than 20 is denoted as A) | A (a compound having 10 or more and less than 20 is denoted as A) |  |  |  |  |  |
| CCC[C@H]1C(=O)N[C@@H](CC(C)C)C(=O)N(CCOC)CC(=O)N(C)[C@H]2C/C=C\CCN(C2=O)[C@@H](Cc2ccc(C)cc2)C(=O)N(C)CC(=O)N[C@@H](CCc2cc(F)c(C(F)(F)F)c(F)c2)C(=O)N2C[C@H](OCC)C[C@H]2C(=O)NC2(CCC2)C(=O)N(C)[C@@H](C2CCCC2)C(=O)N(C)[C@H](C(=O)N(C)C)CC(=O)N1C [PP2541] | 374 | 4.9 | A (a compound having 10 or more and less than 20 is denoted as A) | B (a compound having 3 or more and less than 10 is denoted as B) |  |  |  |  |  |
| CCO[C@@H]1C[C@H]2C(=O)OC3(CCC3)C(=O)N(C)[C@@H](C3CCCC3)C(=O)N(C)[C@H](C(=O)N(C)C)CC(=O)N(C)[C@@H]([C@H](C)OC)C(=O)N[C@@H]([C@@H](C)CC)C(=O)N3CCC[C@H]3C(=O)N(C)[C@H]3C/C=C\CCN(C3=O)[C@@H](Cc3ccc(C(F)(F)F)cc3)C(=O)N(C)CC(=O)N[C@@H](CCc3ccc(C(F)(F)F)c(OC)c3)C(=O)N2C1 [PP3377] | 11.3 |  | A (a compound having 10 or more and less than 20 is denoted as A) | A (a compound having 10 or more and less than 20 is denoted as A) | 0.53 |  |  |  |  |
| CCO[C@@H]1C[C@H]2C(=O)NC3(CCC3)C(=O)N(C)[C@@H](C(CC)CC)C(=O)N(C)[C@H](C(=O)N(C)C)CC(=O)N(C)[C@@H](CC3CCCC3)C(=O)N[C@@H]([C@@H](C)CC)C(=O)N(C)CC(=O)N(C)[C@H]3C/C=C\CCN(C3=O)[C@@H](CC3CCC(F)(F)CC3)C(=O)N(C)CC(=O)N[C@@H](CCc3cc(F)c(C(F)(F)F)c(F)c3)C(=O)N2C1 [PP1431] |  |  |  |  |  | 41.2 | 0.57 | AA (a compound having 20 or more is denoted as AA) | A (a compound having 10 or more and less than 20 is denoted as A) |
| CCOC[C@H]1C(=O)N[C@@H]([C@@H](C)CC)C(=O)N(C)CC(=O)N(C)[C@H]2C/C=C\CCN(C2=O)[C@@H](Cc2ccc(C(F)(F)F)cc2)C(=O)N(C)CC(=O)N[C@@H](CCc2cc(F)c(C(F)(F)F)c(F)c2)C(=O)N2C[C@H](OCC)C[C@H]2C(=O)NC2(CCC2)C(=O)N(C)[C@@H](C2CCCC2)C(=O)N(C)[C@H](C(=O)N(C)C)CC(=O)N1C [PP1266] |  |  |  |  |  | 12.2 | 0.045 | A (a compound having 10 or more and less than 20 is denoted as A) | A (a compound having 10 or more and less than 20 is denoted as A) |
| CCO[C@@H]1C[C@H]2C(=O)NC3(CCCC3)C(=O)N(C)[C@@H](C3CCCC3)C(=O)N(C)[C@H](C(=O)N(C)C)CC(=O)N(C)[C@@H](CC3CC3)C(=O)N[C@@H]([C@@H](C)CC)C(=O)N(C)CC(=O)N(C)[C@H]3C[C@@H](C)[C@@H](C)CN(C3=O)[C@@H](Cc3ccc(C(F)(F)F)cc3)C(=O)N(C)CC(=O)N[C@@H](CCc3cc(F)c(C(F)(F)F)c(F)c3)C(=O)N2C1 [PP1356] |  |  |  |  |  | 3.3 | 0.047 | B (a compound having 3 or more and less than 10 is denoted as B) | B (a compound having 3 or more and less than 10 is denoted as B) |
| CCO[C@@H]1C[C@H]2C(=O)NC3(CCC3)C(=O)N(C)[C@@H](C3CCCC3)C(=O)N(C)[C@H](C(=O)N(C)C)CC(=O)N(C)[C@@H](CC)C(=O)N[C@@H]([C@@H](C)CC)C(=O)N(C)CC(=O)N(C)[C@H]3C/C=C\CCN(C3=O)[C@@H](Cc3ccc(C(F)(F)F)cc3)C(=O)N(C)CC(=O)N[C@@H](CCc3ccc(Cl)c(Cl)c3)C(=O)N2C1 [PP1249] |  |  |  |  |  | 55.4 | 0.18 | A (a compound having 10 or more and less than 20 is denoted as A) | A (a compound having 10 or more and less than 20 is denoted as A) |
| CCO[C@@H]1C[C@H]2C(=O)NC3(CCC3)C(=O)N(C)[C@@H](C3CCCC3)C(=O)N(C)[C@H](C)CC(=O)N(C)[C@@H](CC(C)C)C(=O)N[C@@H]([C@@H](C)CC)C(=O)N(C)CC(=O)N(C)[C@H]3C/C=C\CCN(C3=O)[C@@H](Cc3ccc(C)cc3)C(=O)N(C)CC(=O)N[C@@H](CCc3cc(F)c(C(F)(F)F)c(F)c3)C(=O)N2C1 [PP1417] |  |  |  |  |  | 18.4 | 0.26 | B (a compound having 3 or more and less than 10 is denoted as B) | B (a compound having 3 or more and less than 10 is denoted as B) |
| CCOC[C@H]1C(=O)N[C@@H]([C@@H](C)CC)C(=O)N(C)CC(=O)N(C)[C@H]2C/C=C\CCN(C2=O)[C@@H](Cc2ccc(C(F)(F)F)cc2)C(=O)N(C)CC(=O)N[C@@H](CCc2cc(F)c(C(F)(F)F)c(F)c2)C(=O)N2C[C@H](OCC)C[C@H]2C(=O)NC2(CC(C)(C)C2)C(=O)N(C)[C@@H](CC2CCC2)C(=O)N(C)[C@H](C(=O)N(C)C)CC(=O)N1C [PP2763] | 71.9 | 0.86 | A (a compound having 10 or more and less than 20 is denoted as A) | A (a compound having 10 or more and less than 20 is denoted as A) |  |  |  |  |  |
| CCOC[C@H]1C(=O)N[C@@H]([C@@H](C)CC)C(=O)N(C)CC(=O)N(C)[C@H]2C/C=C\CCN(C2=O)[C@@H](Cc2ccc(C(F)(F)F)cc2)C(=O)N(C)CC(=O)N[C@@H](CCc2ccc(Cl)c(Cl)c2)C(=O)N2C[C@H](OCC)C[C@H]2C(=O)NC2(CC(C)(C)C2)C(=O)N(C)[C@@H](CC(C)(C)C)C(=O)N(C)[C@H](C(=O)N(C)C)CC(=O)N1C [PP2740] | 24.2 | 0.17 | AA (a compound having 20 or more is denoted as AA) | A (a compound having 10 or more and less than 20 is denoted as A) |  |  |  |  |  |
| CCO[C@@H]1C[C@H]2C(=O)OC3(CCC3)C(=O)N(C)[C@@H](C3CCCC3)C(=O)N(C)[C@H](C(=O)N(C)C)CC(=O)N(C)[C@@H]([C@H](C)OC)C(=O)N[C@@H]([C@@H](C)CC)C(=O)N3CCC[C@H]3C(=O)N(C)[C@H]3C/C=C\CCN(C3=O)[C@@H](Cc3ccc(C)cc3)C(=O)N(C)CC(=O)N[C@@H](CCc3ccc(C(F)(F)F)c(OC)c3)C(=O)N2C1 [PP3395] | 11 |  | A (a compound having 10 or more and less than 20 is denoted as A) | B (a compound having 3 or more and less than 10 is denoted as B) | 0.82 |  |  |  |  |
| CCO[C@@H]1C[C@H]2C(=O)NC3(CCC3)C(=O)N(C)[C@@H](C3CCCC3)C(=O)N(C)[C@H](C(=O)N(C)C)CC(=O)N(C)[C@@H](COC3CC3)C(=O)N[C@@H]([C@@H](C)CC)C(=O)N(C)CC(=O)N(C)[C@H]3C/C=C\CCN(C3=O)[C@@H](Cc3ccc(C(F)(F)F)cc3)C(=O)N(C)CC(=O)N[C@@H](CCc3cc(F)c(C(F)(F)F)c(F)c3)C(=O)N2C1 [PP1268] |  |  |  |  |  | 12.1 | 0.045 | A (a compound having 10 or more and less than 20 is denoted as A) | A (a compound having 10 or more and less than 20 is denoted as A) |
